Measurements as given in patent publication US20250171438A1 (Agios Pharmaceuticals, Inc., priority 2022, published 2025).

Each compound was assayed against T1, human PAH with the R408W mutation (Homo sapiens, UniProt P00439, R408W) (assay: Cell Based Phenylalanine Flux Assay). Conditions: A375 cells expressing human R408W PAH; 24 hrs compound incubation; 13C-Tyrosine by LC-MS; average where tested multiple times; read-out: AC50.
T1 construct: expressed in transfected cells
T1 sequence (P00439 1-452 R408W): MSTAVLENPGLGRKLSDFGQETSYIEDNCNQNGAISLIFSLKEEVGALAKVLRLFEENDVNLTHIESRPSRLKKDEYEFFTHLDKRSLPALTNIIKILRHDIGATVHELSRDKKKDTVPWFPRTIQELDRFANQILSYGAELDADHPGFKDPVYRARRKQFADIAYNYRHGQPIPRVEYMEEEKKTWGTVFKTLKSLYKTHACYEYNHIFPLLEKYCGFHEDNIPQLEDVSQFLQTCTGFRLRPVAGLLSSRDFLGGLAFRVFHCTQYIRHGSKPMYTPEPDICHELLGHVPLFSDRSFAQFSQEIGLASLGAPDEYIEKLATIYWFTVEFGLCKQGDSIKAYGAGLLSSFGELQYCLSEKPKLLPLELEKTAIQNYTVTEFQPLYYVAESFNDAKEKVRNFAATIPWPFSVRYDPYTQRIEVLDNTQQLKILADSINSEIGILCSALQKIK

| SMILES | AC50 [nM] |
| --- | --- |
| O=C(c1nccs1)N1CCc2nc[nH]c2[C@H]1c1nc2c(F)cccc2s1 [Example 1120, (S)-(4-(4-fluorobenzo[d]thiazol-2-yl)-6,7-dihydro-3H-imidazo[4,5-c]pyridin-5(4H)-yl)(thiazol-2-yl)methanone] | 500 to 1000 |
| O=C(CCc1nccs1)N1CCc2[nH]cnc2[C@H]1c1nc2cccc(Br)c2s1 [Example 1121, (S)-1-(4-(7-bromobenzo[d]thiazol-2-yl)-6,7-dihydro-1H-imidazo[4,5-c]pyridin-5(4H)-yl)-3-(thiazol-2-yl)propan-1-one] | 500 to 1000 |
| O=C(CCc1nccs1)N1CCc2[nH]cnc2[C@@H]1c1nc2cccc(Br)c2s1 [Example 1122, (R)-1-(4-(7-bromobenzo[d]thiazol-2-yl)-6,7-dihydro-1H-imidazo[4,5-c]pyridin-5(4H)-yl)-3-(thiazol-2-yl)propan-1-one] | 1000 to 5000 |
| O=C(c1ccno1)N1CCc2[nH]cnc2[C@H]1c1nc2ccccc2s1 [Example 1123] | 500 to 1000 |
| O=C(c1ccno1)N1CCc2[nH]cnc2[C@@H]1c1nc2ccccc2s1 [Example 1124, (R)-(4-(benzo[d]thiazol-2-yl)-6,7-dihydro-1H-imidazo[4,5-c]pyridin-5(4H)-yl)(isoxazol-5-yl)methanone] | > 5000 |
| Cc1ccn2ncc(C(=O)N3CCc4[nH]cnc4[C@H]3c3nc4ccccc4s3)c2c1 [Example 1125] | 1000 to 5000 |
| Cc1ccn2ncc(C(=O)N3CCc4[nH]cnc4[C@@H]3c3nc4ccccc4s3)c2c1 [Example 1126, (R)-(4-(benzo[d]thiazol-2-yl)-6,7-dihydro-1H-imidazo[4,5-c]pyridin-5(4H)-yl)(5-methylpyrazolo[1,5-a]pyridin-3-yl)methanone] | 1000 to 5000 |
| O=C(c1cc2cccnn2c1)N1CCc2[nH]cnc2[C@H]1c1nc2ccccc2s1 [Example 1127] | 500 to 1000 |
| O=C(c1cc2cccnn2c1)N1CCc2[nH]cnc2[C@@H]1c1nc2ccccc2s1 [Example 1128, (R)-(4-(benzo[d]thiazol-2-yl)-6,7-dihydro-1H-imidazo[4,5-c]pyridin-5(4H)-yl)(pyrrolo[1,2-b]pyridazin-6-yl)methanone] | > 5000 |
| O=C(c1nc2ccccc2o1)N1CCc2[nH]cnc2[C@H]1c1nc2ccccc2s1 [Example 1129, (S)-benzo[d]oxazol-2-yl(4-(benzo[d]thiazol-2-yl)-1,4,6,7-tetrahydro-5H-imidazo[4,5-c]pyridin-5-yl)methanone] | < 500 |
| O=C(c1nc2ccccc2o1)N1CCc2[nH]cnc2[C@@H]1c1nc2ccccc2s1 [Example 1130, (R)-benzo[d]oxazol-2-yl(4-(benzo[d]thiazol-2-yl)-1,4,6,7-tetrahydro-5H-imidazo[4,5-c]pyridin-5-yl)methanone] | 1000 to 5000 |
| O=C(c1nc2ccccc2[nH]1)N1CCc2[nH]cnc2[C@H]1c1nc2ccccc2s1 [Example 1131] | 500 to 1000 |
| O=C(c1nc2ccccc2[nH]1)N1CCc2[nH]cnc2[C@@H]1c1nc2ccccc2s1 [Example 1132, (R)-(1H-benzo[d]imidazol-2-yl)(4-(benzo[d]thiazol-2-yl)-6,7-dihydro-1H-imidazo[4,5-c]pyridin-5(4H)-yl)methanone] | 1000 to 5000 |
| O=C(CCC1CC1)N1CCc2[nH]cnc2[C@H]1c1nc2cccc(F)c2s1 [Example 1133, (S)-3-cyclopropyl-1-(4-(7-fluorobenzo[d]thiazol-2-yl)-6,7-dihydro-1H-imidazo[4,5-c]pyridin-5(4H)-yl)propan-1-one] | 500 to 1000 |
| O=C(CCC1CC1)N1CCc2[nH]cnc2[C@@H]1c1nc2cccc(F)c2s1 [Example 1134, (R)-3-cyclopropyl-1-(4-(7-fluorobenzo[d]thiazol-2-yl)-6,7-dihydro-1H-imidazo[4,5-c]pyridin-5(4H)-yl)propan-1-one] | 1000 to 5000 |
| O=C(CC1CC1)N1CCc2[nH]cnc2[C@H]1c1nc2cc(F)ccc2s1 [Example 1135, (S)-2-cyclopropyl-1-(4-(5-fluorobenzo[d]thiazol-2-yl)-6,7-dihydro-1H-imidazo[4,5-c]pyridin-5(4H)-yl)ethanone] | 500 to 1000 |
| O=C(CC1CC1)N1CCc2[nH]cnc2[C@@H]1c1nc2cc(F)ccc2s1 [Example 1136, (R)-2-cyclopropyl-1-(4-(5-fluorobenzo[d]thiazol-2-yl)-6,7-dihydro-1H-imidazo[4,5-c]pyridin-5(4H)-yl)ethanone] | 1000 to 5000 |
| O=C(c1cnn2ccc(Br)cc12)N1CCc2[nH]cnc2[C@H]1c1nc2ccc(F)cc2s1 [Example 1137] | 500 to 1000 |
| O=C(c1cnn2ccc(Br)cc12)N1CCc2[nH]cnc2[C@@H]1c1nc2ccc(F)cc2s1 [Example 1138, (R)-(5-bromopyrazolo[1,5-a]pyridin-3-yl)(4-(6-fluorobenzo[d]thiazol-2-yl)-6,7-dihydro-1H-imidazo[4,5-c]pyridin-5(4H)-yl)methanone] | 1000 to 5000 |
| c1ccc2sc([C@@H]3c4nc[nH]c4CCN3Cc3nccs3)nc2c1 [Example 1139, (S)-2-(5-(thiazol-2-ylmethyl)-4,5,6,7-tetrahydro-1H-imidazo[4,5-c]pyridin-4-yl)benzo[d]thiazole] | 500 to 1000 |
| c1ccc2sc([C@H]3c4nc[nH]c4CCN3Cc3nccs3)nc2c1 [Example 1140, (R)-2-(5-(thiazol-2-ylmethyl)-4,5,6,7-tetrahydro-1H-imidazo[4,5-c]pyridin-4-yl)benzo[d]thiazole] | 1000 to 5000 |
| O=C(c1scnc1Cl)N1CCc2[nH]cnc2[C@@H]1c1nc2ccc(F)cc2s1 [Example 1141] | > 5000 |
| O=C(c1nc(Cl)cs1)N1CCc2[nH]cnc2[C@H]1c1nc2ccc(F)cc2s1 [Example 1142] | 500 to 1000 |
| O=C(c1ncn2ccccc12)N1CCc2[nH]cnc2[C@H]1c1nc2c(F)cccc2s1 [Example 1143, (S)-(4-(4-fluorobenzo[d]thiazol-2-yl)-6,7-dihydro-1H-imidazo[4,5-c]pyridin-5(4H)-yl)(imidazo[1,5-a]pyridin-1-yl)methanone] | 500 to 1000 |
| O=C(c1ncn2ccccc12)N1CCc2[nH]cnc2[C@@H]1c1nc2c(F)cccc2s1 [Example 1144, (R)-(4-(4-fluorobenzo[d]thiazol-2-yl)-6,7-dihydro-1H-imidazo[4,5-c]pyridin-5(4H)-yl)(imidazo[1,5-a]pyridin-1-yl)methanone] | > 5000 |
| O=C(CCC1CC1)N1CCc2[nH]cnc2[C@H]1c1nc2ccc(Br)cc2s1 [Example 1145, (S)-1-(4-(6-bromobenzo[d]thiazol-2-yl)-6,7-dihydro-1H-imidazo[4,5-c]pyridin-5(4H)-yl)-3-cyclopropylpropan-1-one] | < 500 |
| O=C(CCC1CC1)N1CCc2[nH]cnc2[C@@H]1c1nc2ccc(Br)cc2s1 [Example 1146, (R)-1-(4-(6-bromobenzo[d]thiazol-2-yl)-6,7-dihydro-1H-imidazo[4,5-c]pyridin-5(4H)-yl)-3-cyclopropylpropan-1-one] | 500 to 1000 |
| O=C(CC1CC1)N1CCc2[nH]cnc2[C@@H]1c1nc2ccc(Br)cc2s1 [Example 1147, (R)-1-(4-(6-bromobenzo[d]thiazol-2-yl)-6,7-dihydro-1H-imidazo[4,5-c]pyridin-5(4H)-yl)-2-cyclopropylethanone] | 500 to 1000 |
| O=C(CC1CC1)N1CCc2[nH]cnc2[C@H]1c1nc2ccc(Br)cc2s1 [Example 1148, (S)-1-(4-(6-bromobenzo[d]thiazol-2-yl)-6,7-dihydro-1H-imidazo[4,5-c]pyridin-5(4H)-yl)-2-cyclopropylethanone] | < 500 |
